Where two headings read alike, the source gives them in different places.
Target: BTK (Homo sapiens, UniProt Q06187)
Experiment: biochemical
[1] = read-out: BTK inhibition (%), 0.75 uM BTK, […] probe 3l, 15 min preincubation

Chain of BTK (Q06187 402-655 limits assumed): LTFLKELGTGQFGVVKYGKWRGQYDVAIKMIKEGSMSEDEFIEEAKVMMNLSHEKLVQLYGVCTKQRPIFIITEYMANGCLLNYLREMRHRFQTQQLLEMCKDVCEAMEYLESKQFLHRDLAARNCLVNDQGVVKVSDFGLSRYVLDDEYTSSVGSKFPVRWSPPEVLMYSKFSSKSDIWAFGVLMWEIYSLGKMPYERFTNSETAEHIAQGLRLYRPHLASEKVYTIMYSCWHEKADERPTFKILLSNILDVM

inhibition at 10 µM [1] [%] | SMILES | inhibition at 10 µM (read-out: BTK inhibition (%)) [%]
19.3 | C=CC(=O)Nc1cc(N2CCN(CC)CC2)ccc1Nc1cc(N(C)C(=O)Nc2c(Cl)c(OC)cc(OC)c2Cl)ncn1 [PCM-0215942] | –
-26.9 | COc1ccc(-c2cc(=O)c3c(OC)c(OC)c(OC)c(OC)c3o2)cc1 [PCM-0086738] | –
6.9 | CCCCC1OC(=O)c2ccccc21 (stereo not drawn) [PCM-0216506] | –
18.6 | COC(=O)Nc1ccc(-c2nc(N3CCOCC3)c3cnn(C4CCN(C(=O)OC)CC4)c3n2)cc1 [PCM-0095038] | –
11.7 | C[C@H](CCC(=O)O)[C@H]1CC[C@H]2[C@@H]3CC[C@@H]4C[C@H](O)CC[C@]4(C)[C@H]3C[C@H](O)[C@]12C [PCM-0214839] | –
0 | C[C@]12CC[C@H](O)CC1=CC[C@@H]1[C@@H]2CC[C@]2(C)C(n3cnc4ccccc43)=CC[C@@H]12 [PCM-0095399] | –
21.4 | Nc1nc2cc(-c3ccc4ncc(C(=O)N5CCOCC5)n4c3)ccc2o1 [PCM-0215857] | –
-2.3 | COc1ccc2c(c1)=C(CC(=O)N1CCOCC1)C(C)(C(=O)c1ccc(Cl)cc1)N=2 (stereo not drawn) [PCM-0095476] | –
10.1 | CCOC(=O)c1c(CSc2ccccc2)n(C)c2cc(Br)c(O)c(CN(C)C)c12 [PCM-0095296] | –
0.8 | O=C(Nc1ccccc1)c1cc([N+](=O)[O-])ccc1Cl [PCM-0065623] | –
-4.6 | CCCC[C@@H](C=O)NC(=O)[C@H](CC(C)C)NC(=O)OCc1ccccc1 [PCM-0215437] | –
-12.8 | Nc1ccn(C[C@@H](CO)OCP(=O)(O)O)c(=O)n1 [PCM-0095189] | –
2.3 | OC[C@@H](O)C(O)[C@@H](O)CO (stereo partly drawn) [PCM-0090917] | –
-3.1 | O=C1OC(COc2ccccc2[N+](=O)[O-])CC1Cc1ccccc1 (stereo not drawn) [PCM-0215840] | –
18.5 | COc1ccc(C(NC(=O)c2cnc(-c3cccnn3)[nH]c2=O)c2ccc(OC)cc2)cc1 [PCM-0215803] | –
3.9 | O=C(Nc1ccc(Br)cc1)c1c(O)cccc1O [PCM-0215136] | –
-12.4 | Cc1ccc(S(=O)(=O)/C=C/C#N)cc1 [PCM-0065564] | –
6.2 | COc1cc2c(=O)c(-c3ccc(O)cc3)coc2cc1O [PCM-0216399] | –
-9.7 | CC(=O)OCCc1ccc(O)c(O)c1 [PCM-0214986] | –
-10.1 | OC[C@@H](O)[C@H](O)[C@H](O)[C@@H](O)CO [PCM-0215034] | –
6.2 | C[C@H](CCC(=O)O)[C@H]1CC[C@H]2[C@@H]3[C@H](O)C[C@@H]4C[C@H](O)CC[C@]4(C)[C@H]3CC[C@]12C [PCM-0214654] | –
3.1 | CC(=O)c1ccccc1 [PCM-0216190] | –
-18.5 | C[N+]12CCc3cc4c(cc3C1(O)Cc1ccc3c(c1C2)OCO3)OCO4 (stereo not drawn) [PCM-0216462] | –
11.7 | O=C1Nc2ccccc2C1=O [PCM-0214846] | –
106 | O=C(NC(NC(=S)Nc1ccc(F)c([N+](=O)[O-])c1)C(Cl)(Cl)Cl)C(c1ccccc1)c1ccccc1 (stereo not drawn) [PCM-0215199] | –

inhibition at 10 µM [1] [%] | SMILES | inhibition at 10 µM (read-out: BTK inhibition (%)) [%]
-47.6 | Nc1c(CC(=O)O)cccc1C(=O)c1ccc(Br)cc1 [PCM-0214777] | –
2.1 | C[C@]12C=CC(=O)C=C1CC[C@H]1[C@@H]3C[C@@H](O)[C@](O)(C(=O)CO)[C@@]3(C)C[C@H](O)[C@@]12F [PCM-0064944] | –
16.3 | CCOC(=O)C1=C(C)NC(C)=C(C(=O)OCC)C1c1ccccc1/C=C/C(=O)OC(C)(C)C [PCM-0085989] | –
-3.9 | C=C1C[C@@]23CC[C@H]4[C@@](C)(CCC[C@@]4(C)C(=O)O)[C@@H]2CC[C@]1(O[C@@H]1O[C@H](CO)[C@@H](O)[C@H](O)[C@H]1O[C@@H]1O[C@H](CO)[C@@H](O)[C@H](O)[C@H]1O)C3 [PCM-0216480] | –
-12.4 | OCc1cc(C(O)CNCCCCCCOCCCCc2ccccc2)ccc1O (stereo not drawn) [PCM-0065569] | –
5.4 | O=c1ccn([C@@H]2O[C@H](CO)[C@@H](O)[C@@H]2O)c(=O)[nH]1 [PCM-0215072] | –
-17 | COc1cc2c(N3CCN(C(=O)Nc4ccc(OC(C)C)cc4)CC3)ncnc2cc1OCCCN1CCCCC1 [PCM-0090254] | –
17 | Cc1cc(=O)oc2ccc(O)cc12 [PCM-0216279] | –
4.3 | CC1=C(C(=O)O)N2C(=O)[C@@H](NC(=O)[C@H](N)c3ccccc3)[C@H]2SC1 [PCM-0095179] | –
– | O=C(NCC1CCOCC1)c1cnc(Nc2ccc(Cl)cc2Cl)nc1C(F)(F)F [PCM-0095345] | -9.3
-17 | Fc1ccc(Cl)cc1-c1nc(Nc2ccncc2)c2nccnc2n1 [PCM-0215428] | –
6.8 | CC(C)(O/N=C(\C(=O)N[C@@H]1C(=O)N2C(C(=O)[O-])=C(C[n+]3ccccc3)CS[C@H]12)c1csc(N)n1)C(=O)O [PCM-0215253] | –
7 | CC(C)(CO)[C@@H](O)C(=O)NCCC(=O)O [PCM-0214814] | –
28 | O=C1N=C(O)CN1/N=C/c1ccc(-c2ccc([N+](=O)[O-])cc2)o1 [PCM-0086748] | –
-14 | CC(C)c1noc(N2CCC(COc3ccc(-c4ccc(S(C)(=O)=O)cc4)nc3)CC2)n1 [PCM-0095313] | –
-61.5 | CC(C)OC(=O)CCC/C=C\C[C@@H]1[C@@H](/C=C/C(F)(F)COc2ccccc2)[C@H](O)C[C@@H]1O [PCM-0216028] | –
15.3 | O=c1oc2c(O)c(O)cc3c(=O)oc4c(O)c(O)cc1c4c23 [PCM-0090664] | –
-10.8 | Cc1ccc(S(=O)(=O)c2ccc([N+](=O)[O-])o2)cc1 [PCM-0095771] | –
-32.4 | NC(=O)c1ccc(N(C(N)=O)c2c(F)cccc2F)nc1-c1ccc(F)cc1F [PCM-0095567] | –
-8.3 | COc1ccc(-c2ccc3c(N4CCOC[C@@H]4C)nc(N4CCOC[C@@H]4C)nc3n2)cc1CO [PCM-0095110] | –
15.4 | O=C(CCCCCCC(=O)N/N=C/c1ccc(N(c2ccccc2)c2ccccc2)cc1)NO [PCM-0215937] | –
4.3 | CN[C@@H]1[C@@H](O)[C@@H](O[C@@H]2[C@@H](O)[C@H](O[C@H]3O[C@H](CN)[C@@H](O)[C@H](O)[C@H]3O)[C@@H](N)C[C@H]2NC(=O)[C@@H](O)CN)OC[C@]1(C)O [PCM-0215401] | –
44 | CO[C@H]1C[C@H](O[C@H]2[C@H](C)O[C@@H](O[C@@H]3/C(C)=C/C[C@@H]4C[C@@H](C[C@]5(C=C[C@H](C)[C@@H](C6CCCCC6)O5)O4)OC(=O)[C@@H]4C=C(C)[C@@H](O)[C@H]5OC/C(=C\C=C\[C@@H]3C)[C@]54O)C[C@@H]2OC)O[C@@H](C)[C@@H]1O [PCM-0215971] | –
4.6 | Fc1ccc2c(/C=C/c3nn[nH]n3)c[nH]c2c1 [PCM-0215746] | –
-7.7 | CC(C)=CCCC(C)CCO (stereo not drawn) [PCM-0216208] | –

inhibition at 10 µM [1] [%] | SMILES | inhibition at 10 µM (read-out: BTK inhibition (%)) [%]
78.6 | CC(C)Nc1cc(-c2c[nH]c(C(=O)N[C@H](CO)c3cccc(Cl)c3)c2)c(Cl)cn1 [PCM-0215481] | –
26.5 | C#C[C@]1(O)CC[C@H]2[C@@H]3CCc4cc(O)ccc4[C@H]3CC[C@@]21C [PCM-0086269] | –
-5.4 | Cc1nc(C(=O)NCC(=O)O)c(O)c2ccc(Oc3ccccc3)cc12 [PCM-0094891] | –
-19.3 | Cc1ccccc1CN1C2=NCCN2C(=O)C2=C1CCN(Cc1ccccc1)C2 [PCM-0095783] | –
36.6 | COc1cc(/C=C/c2ccc(O)c(O)c2)cc(OC)c1 [PCM-0214943] | –
7.7 | Cc1cccc(Nc2cc(Cl)nc(SCC(=O)O)n2)c1C [PCM-0095617] | –
39.3 | CC(C)(C)c1nc(-c2cccc(NS(=O)(=O)c3c(F)cccc3F)c2F)c(-c2ccnc(N)n2)s1 [PCM-0095418] | –
19.3 | CC(=O)OCC(=O)[C@@]12OC(C)(C)O[C@@H]1C[C@H]1[C@@H]3C[C@H](F)C4=CC(=O)C=C[C@]4(C)[C@@]3(F)[C@@H](O)C[C@@]12C [PCM-0214700] | –
-22.4 | O=c1cc(-c2ccc(O[C@@H]3O[C@H](CO)[C@@H](O)[C@H](O)[C@H]3O)cc2)oc2cc(O)c([C@@H]3O[C@H](CO)[C@@H](O)[C@H](O)[C@H]3O[C@@H]3OC[C@H](O)[C@H](O)[C@H]3O)c(O)c12 [PCM-0216482] | –
-13.1 | COc1ccc(-c2oc3c(CC=C(C)C)c(O[C@@H]4O[C@H](CO)[C@@H](O)[C@H](O)[C@H]4O)cc(O)c3c(=O)c2O[C@@H]2O[C@@H](C)[C@H](O)[C@@H](O)[C@H]2O[C@@H]2O[C@@H](C)[C@H](O)[C@@H](O)[C@H]2O)cc1 [PCM-0216512] | –
16.2 | CCS(=O)(=O)Nc1ccc(Oc2ccc(F)cc2F)c(-c2cn(C)c(=O)c3[nH]ccc23)c1 [PCM-0214596] | –
-16.3 | OC[C@@H](O)[C@@H](O[C@H]1O[C@H](CO)[C@@H](O)[C@H](O)[C@H]1O)[C@H](O)[C@@H](O)CO [PCM-0215074] | –
79.3 | Cc1ccc(Nc2cc(N[C@@H]3CCCC[C@@H]3N)nnc2C(N)=O)nc1C [PCM-0215730] | –
-7.7 | CC(C)c1cc2c(N3CCN(C4=NCC(C)(C)S4)CC3)ncnc2s1 [PCM-0215379] | –
-20.2 | CCC(=O)NCC[C@@H]1CCc2ccc3c(c21)CCO3 [PCM-0090528] | –
-11 | COC1=C(OC)C(=O)C(CCCCCCCCCCO)=C(C)C1=O [PCM-0085939] | –
17.1 | COc1ccc([C@@H]2Sc3ccccc3N(CCN(C)C)C(=O)[C@@H]2OC(C)=O)cc1 [PCM-0065036] | –
-24.7 | CNC(=O)c1ccc(-c2cnc3ncc(Cc4ccc5ncccc5c4)n3n2)cc1F [PCM-0095370] | –
15.9 | N#CC[C@@H](C1CCCC1)n1cc(-c2ncnc3[nH]ccc23)cn1 [PCM-0095369] | –
14 | Nc1ncnc2c1ncn2[C@@H]1O[C@H](CO)[C@@H](O)[C@H]1O [PCM-0090045] | –
-8.6 | CCOC(=O)Nc1ccc(NCc2ccc(F)cc2)nc1N [PCM-0065288] | –
3.1 | CC(N)C12CC3CC(CC(C3)C1)C2 (stereo not drawn) [PCM-0012697] | –
-3.9 | NC(=O)c1cccc(N)c1 [PCM-0064562] | –

SMILES | inhibition at 10 µM [1] [%] | inhibition at 10 µM (read-out: BTK inhibition (%)) [%]
Cc1ccc(O)c([C@H](CCN(C(C)C)C(C)C)c2ccccc2)c1 [PCM-0095328] | 1.6 | –
C=C[C@H]1CN2CC[C@@]3(C(=O)Nc4ccccc43)[C@@H]2C[C@@H]1/C(=C\OC)C(=O)OC [PCM-0216491] | -7.7 | –

Source: publication PMC8041284, “Tunable Methacrylamides for Covalent Ligand Directed Release Chemistry” (Journal of the American Chemical Society, 2021)
